The source of these data is patent publication US12601718B2, “Method for pretreating ranitidine hydrochloride sample” (Hunan Institute for Drug Inspection and Testing, priority 2022, dated 2026).

For data set [1] the following is noted: cited from earlier work.
The nature of data set [2]: NDMA carcinogenicity / acceptable intake from CPDB toxicological data (TD50 linear extrapolation, rodent carcinogenicity data). The conditions noted are these: 0.0959 μg÷300 mg. Format: in vivo. As for the experimental part: According to the toxicological data in the FDA according to the Carcinogenic Potency Database (CPDB database), the NDMA acceptable daily intake is set at about 0.096 μg. On Sep. 13, 2019, the FDA released a safety warning that some Ranitidine-based drugs (including the brand-name drug Zantac) contain the impurity of N-nitrosodimethylamine (NDMA). Subsequently, China launched special inspections and testing on NDMA for this variety.

For data set [3] the following is noted: cited from earlier work. The source holds these as a separate data set.

On to `CN(C)N=O` [NDMA, N-nitrosodimethylamine], for which, in data set [1], the solubility in dichloromethane entry is reported as “almost insoluble” and the solubility in water entry is “readily soluble”. Moreover, in data set [2], the “limit value of the impurity NDMA in Ranitidine hydrochloride capsules” value is “≈ 320 ng/g”. Also, in data set [3] (FDA, according to CPDB database), the “NDMA acceptable daily intake” value was “about 0.096 μg”. The carcinogen class entry in data set [3] (in vivo) is recorded as “class-2A carcinogen”.

Turning to `CNC(=C[N+](=O)[O-])NCCSCc1ccc(CN(C)C)o1` [Ranitidine], in data set [1], the solubility in dichloromethane entry is on record as “almost insoluble” and the solubility in water entry was “readily soluble”.
